{Flc} = fluorescein group
How the values were obtained:
Type in all cases: biochemical
Caf1/CNOT7 = target: T1, Caf1/CNOT7 (Homo sapiens, UniProt Q9UIV1); assay: fluorescence-based deadenylase assay; conditions: for inhibition of Caf1/CNOT7 activity: 300 µM compound; for IC50: 15 min pre-incubation at room temperature, 60 min at 30°C, ± standard error of the mean, at least three independent experiments
T1 construct: hexahistidine (N); made in house; host or cells: Escherichia coli BL21 (DE3), plasmid pQE80L
Experimental: (§1) Standard reaction conditions for deadenylase assays were: 20 mM Tris–HCl pH 7.9, 50 mM NaCl, 2 mM MgCl2, 10% glycerol, 1 mM β-mercaptoethanol and 1.0 µM 5′-Flc-labelled RNA substrate in nuclease-free water.
(§2) For fluorescence-based detection of nuclease activity, deadenylase reactions (10–20 µl) were incubated at 30°C for 60 min and stopped by the addition of an equal volume of probe mix containing 1% SDS, and a 5-fold molar excess of 3′-labelled DNA probe. Fluorescence intensity was measured at 25°C (sensitivity setting 70–90) using a BioTek Synergy HT plate reader with 96 or 384 U-shaped black multi-well plates. Filter sets used were: 485 ± 20 nm (excitation) and 528 ± 20 nm (emission). Data analysis and curve-fitting were carried out using Microsoft Excel 2007 and Graphpad Prism 5.0.
Compounds (10 mM in dimethyl sulphoxide, DMSO) were stored in a dry, inert environment at −20°C and dispensed in 96-well plates using an automated facility (TTP Labtech Technology). Compounds were diluted to 0.5 mM using 20% DMSO/water. Aliquots (4 µl; 25% DMSO/water) were transferred to black U-well 384-well plates (Greiner Bio-One) and subsequent automated screening was carried out using a Biomek 3000 liquid handler (Beckman Coulter). After addition of enzyme (8 µl containing 1.0 µM Caf1/CNOT7, 50 mM Tris–HCl pH 7.9, 125 mM NaCl, 5 mM MgCl2, 25% glycerol, 2.5 mM β-mercaptoethanol), plates were left at room temperature for 15 min before the addition of RNA substrate (8 µl). The composition of the final reaction mixture was: 0.4 µM Caf1/CNOT7, 20 mM Tris–HCl pH 7.9, 50 mM NaCl, 2 mM MgCl2, 10% glycerol, 1 mM β-mercaptoethanol, 5% DMSO, 100 µM library compound. After incubation at 30°C for 60 min, 20 µl probe mix (5 µM DNA probe, 1% SDS, 20 mM Tris–HCl pH 8.0, 0.5 mM EDTA) was added. Fluorescence was measured using a BioTek Synergy HT plate reader as described above.

PARN = target: T2, PARN (Homo sapiens, UniProt O95453); assay: fluorescence-based deadenylase assay, selectivity; conditions: 300 µM compound
T2 construct: made in house
T2 sequence (O95453 1-639): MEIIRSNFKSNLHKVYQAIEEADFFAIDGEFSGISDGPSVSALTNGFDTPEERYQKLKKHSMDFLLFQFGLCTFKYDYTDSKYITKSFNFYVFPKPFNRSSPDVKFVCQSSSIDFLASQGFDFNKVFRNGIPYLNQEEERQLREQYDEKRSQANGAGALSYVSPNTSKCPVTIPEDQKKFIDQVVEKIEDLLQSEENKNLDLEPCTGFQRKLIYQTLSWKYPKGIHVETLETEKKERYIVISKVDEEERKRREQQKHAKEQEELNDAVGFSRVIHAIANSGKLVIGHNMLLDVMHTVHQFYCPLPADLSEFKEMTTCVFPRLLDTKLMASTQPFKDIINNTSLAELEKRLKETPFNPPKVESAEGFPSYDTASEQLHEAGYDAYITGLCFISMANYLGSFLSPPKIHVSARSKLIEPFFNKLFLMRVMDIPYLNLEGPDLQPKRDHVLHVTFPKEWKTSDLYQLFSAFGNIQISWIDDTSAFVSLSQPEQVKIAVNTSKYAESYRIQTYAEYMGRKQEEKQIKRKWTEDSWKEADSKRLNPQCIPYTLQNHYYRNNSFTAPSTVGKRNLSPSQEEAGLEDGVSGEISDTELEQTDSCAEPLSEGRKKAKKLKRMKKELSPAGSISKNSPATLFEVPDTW
Experimental: as §1, §2

Ccr4/CNOT6L = target: T3, Ccr4/CNOT6L (Homo sapiens, UniProt Q96LI5); assay: fluorescence-based deadenylase assay, selectivity; conditions: 300 µM compound
T3 construct: lacking the amino terminal leucine-rich repeat domain (amino acids 1–155); made in house; host or cells: E. coli, plasmid pQE80L
Experimental: as §1, §2

[1] = test system: HeLa S-100 cytoplasmic extract; assay: fluorescence-based detection of 3′ exonuclease activity in complex mixtures; conditions: 300 µM compound, 0.05 mg/ml S-100 fraction
Experimental: as §1, §2
HeLa cytoplasmic extract (S-100 fraction) was purchased from Boston Biochem (cat no F-372, 5 mg/ml).

T3 sequence (Q96LI5 156-555): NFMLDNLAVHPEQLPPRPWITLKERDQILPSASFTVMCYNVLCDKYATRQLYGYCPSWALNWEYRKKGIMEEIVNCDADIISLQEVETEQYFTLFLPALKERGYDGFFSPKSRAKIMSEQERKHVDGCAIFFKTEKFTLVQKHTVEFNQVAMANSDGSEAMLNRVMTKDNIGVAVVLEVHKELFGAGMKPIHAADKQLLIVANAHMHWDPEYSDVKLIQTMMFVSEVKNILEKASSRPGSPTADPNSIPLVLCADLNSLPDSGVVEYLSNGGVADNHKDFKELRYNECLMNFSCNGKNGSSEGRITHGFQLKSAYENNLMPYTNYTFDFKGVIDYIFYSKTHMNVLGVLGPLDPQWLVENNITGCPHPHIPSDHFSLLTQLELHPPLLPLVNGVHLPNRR
T1 sequence (Q9UIV1 whole entry): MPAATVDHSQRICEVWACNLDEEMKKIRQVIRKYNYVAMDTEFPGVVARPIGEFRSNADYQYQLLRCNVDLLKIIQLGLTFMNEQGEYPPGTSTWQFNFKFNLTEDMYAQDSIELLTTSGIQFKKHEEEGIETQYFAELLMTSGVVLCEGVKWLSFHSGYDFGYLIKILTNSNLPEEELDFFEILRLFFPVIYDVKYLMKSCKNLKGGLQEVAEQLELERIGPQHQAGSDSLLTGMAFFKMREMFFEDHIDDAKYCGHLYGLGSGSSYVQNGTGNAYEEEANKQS

| Molecule | Km (Caf1/CNOT7; 0.4 µM Caf1/CNOT7, non-linear regression of Michaelis–Menten equation) [µM] | inhibition of PARN activity (PARN) | inhibition of Ccr4/CNOT6L activity (Ccr4/CNOT6L) | inhibition of Caf1/CNOT7 activity (Caf1/CNOT7) | IC50 (Caf1/CNOT7) [µM] | inhibition of activity of the S-100 fraction [1] |
| --- | --- | --- | --- | --- | --- | --- |
| 5′-CCU UUC CAA AAA AAA A-3′ (CCUUUCCAAAAAAAAA; RNA, 5' {Flc}, backbone not given here; Deadenylase RNA substrate) [oligonucleotide substrate, 16-mer RNA substrate oligonucleotide containing a 5′ fluorescein (Flc) group, reference compound] | 10.6 ± 2.9 | – | – | – | – | – |
| Cc1ccccc1C(=O)Nc1nc2ccc(S(=O)(=O)NCC(C)C)cc2s1 [NCC-00001590] | – | did not inhibit | did not inhibit | only inhibited Caf1/CNOT7 | 98.7 ± 10.9 | – |
| CC(Cc1ccco1)NC(=O)CSc1nnc(C(=O)Nc2ccc(Cl)cc2)s1 (stereo not drawn) [NCC-00007277] | – | – | – | – | 137 ± 20.3 | strongest effect |
| Cc1ccc(S(=O)(=O)NCc2nnc(NC(=O)c3ccc(NC(=O)C(F)(F)F)cc3)s2)cc1 [NCC-00010651] | – | no complete inhibition | no complete inhibition | – | 233 ± 23.5 | – |
| Cc1ccc(N(CCC#N)C(=O)CSc2nc3cc(S(N)(=O)=O)ccc3n2C)cc1 [NCC-00019223] | – | – | – | – | 97.5 ± 36.1 | – |
| COc1ccccc1NC(=O)c1ccc(NC(=O)CNC(=O)C(=O)NCc2cccs2)cc1 [NCC-00039069] | – | did not inhibit | did not inhibit | only inhibited Caf1/CNOT7 | 129 ± 18.8 | – |
